According to patent US20100029654A1, “CARDIOVASCULAR COMPOSITIONS AND USE OF THE SAME FOR THE TREATMENT OF ALZHEIMER'S DISEASE” (MOUNT SINAI SCHOOL OF MEDICINE, priority 2006, published 2010):
Values joined by “and” are separate entries in the source; they are usually repeats but may differ in a detail not shown here. Identical values can stand only once. Counter-ions that a name gives are not always drawn. Like-named read-outs stand apart in the source and are kept apart here.

Key:
[1] = tested on: Aβ1-40; experiment: Aβ1-40 content in conditioned medium of primary cortico-hippocampal neuron cultures from Tg2576 mice (ELISA; primary and secondary dose-response screening); format: cell-based, mouse; details: for activity at 100 µM / EC50: Mus musculus; for activity at 100 µM: 24 h, read-out: Ab1-40 (% of ctl); for activity at 100 µM / Ab1-40 (% of ctl): drug 100 μM; for reduced Aβ1-40: <85% of ctl
Method in brief: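 Primary cortico-hippocampal neurons from embryonic Tg2576 mice were plated at 1.0×10^5 cells per well on poly-D-lysine-coated 96-well plates in Neurobasal with 2% B27, 0.5 mM L-glutamine and 1% penicillin-streptomycin. Cultures received drug in 1% DMSO, and Aβ1-40 in the conditioned medium was measured by BioSource ELISA 24 hours after treatment, relative to vehicle controls.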

[2] = tested on: primary cortico-hippocampal neuron cultures; experiment: MTT in primary screening
[3] = tested on: primary cortico-hippocampal neuron cultures; experiment: lactate dehydrogenase (LDH) activity assay in parallel neuron cultures; details: for LDH at E-5M % of change: drug at E-5M
Experimental: For in vitro treatments drugs available from “The Spectrum Collection” in stocks of 10 mM in DMSO were applied directly to cultures to the desired concentrations (final 1% DMSO); control primary neuron cultures from Tg2576 embryos were treated with vehicle resulting in a final 1% DMSO.
Cell viability was assessed using a commercial available LDH assay kit according to the manufacture's instruction (Promega).

[4] = tested on: Aβ1-42; experiment: Aβ1-42 content in conditioned medium of primary cortico-hippocampal neuron cultures from Tg2576 mice (ELISA; primary and secondary dose-response screening); format: cell-based, mouse; details: Mus musculus; for EC50: Neuron; for activity at 100 µM: primary screening, drug 100 μM, Tg2576 neuron cultures, table sorted by Aβ1-42, read-out: Ab1-42 (% of ctl)
[5] = tested on: Aβ1-42; experiment: as above; format: cell-based, mouse; details: for activity at 100 µM: Mus musculus, Neuron, 24 h, read-out: Ab1-42 (% of ctl); for activity at 100 µM / Ab1-42 (% of ctl): drug 100 μM; for reducing Aβ1-42: <85% of ctl
Method in brief: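 This screen tested cardiovascular drugs for Aβ-lowering in Tg2576 embryonic cortico-hippocampal neuron cultures plated at 1.0×10^5 cells per well in poly-D-lysine-coated 96-well plates with Neurobasal/B27 medium. Drugs at 100 μM were added directly to the medium in duplicate, with 1% DMSO alone as the control. Conditioned medium was then collected, and its Aβ1-42 level was quantified with BioSource ELISA kits.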

[6] = Neuron, Primary Screening, table sorted by Aβ1-40
[7] = Neuron, primary screening, Tg2576 neuron cultures, table sorted by Aβ1-42
[8] = Neuron, secondary dose-response screening 0.01-100 μM, 24 hours, read-out: EC50 (molar) Aβ1-40
[9] = Primary Screening, table sorted by Aβ1-40
[10] = primary screening, table sorted by Aβ1-42
[11] = 24 h, secondary dose-response screening 0.01-100 μM, 24 hours, read-out: EC50 (molar) Aβ1-42
[12] = primary screening, Tg2576 neuron cultures, table sorted by Aβ1-42
[13] = secondary dose-response screening 0.01-100 μM, 24 hours
[14] = Primary Screening, table sorted by Aβ1-40, Hydrochloride
[15] = primary screening, table sorted by Aβ1-42, Hydrochloride
[16] = 24 h, conditioned medium of primary cortico-hippocampal neuron cultures from Tg2576 embryos, 24 hours after treatment, relative to vehicle (1% DMSO) control, read-out: EC50 (molar) Aβ1-42

Structure (SMILES)	activity at 100 µM [1, 6]	activity at 100 µM [1, 7]	reduced Aβ1-40 ([1]; primary screening)	MTT (% of ctl) [2, 9]	MTT (% of ctl) [2, 10]	LDH (% of ctl) [3, 9]	LDH at E-5M % of change [3]	LDH (% of ctl) [3, 10]	EC50 [4, 11]	activity at 100 µM [5, 9]	activity at 100 µM [5, 12]	EC50 [4, 16]	activity at 100 µM [1, 12]	Ab1-40 (% of ctl) [1, 9]	activity at 100 µM ([4]; 24 h)	Ab1-42 (% of ctl) [5, 9]	also measured
NNc1nncc2ccccc12 [Hydralazine Hydrochloride]	66.1%	66.1%	reduced Aβ1-40	95.7 % of ctl	95.7 % of ctl	101.1 % of ctl	−1.2%	101.1 % of ctl	1.04e-05 M	63.2%	63.2%						EC50 ([1]; Neuron, Table IV, dose-response 0.01-100 μM, read-out: EC50 (M): Ab-lowering activity Abeta1-40): 9.29e-06 M; EC50 [1, 8]: 9.29e-06 M; LDH (at 5F-5 M) ([3]; Table IV): no change; EC50 ([4]; Table IV, dose-response 0.01-100 μM, read-out: EC50 (M): Ab-lowering activity): 1.04e-05 M; reducing Aβ1-42 ([5]; primary screening): useful in reducing Aβ1-42
CC(COc1ccccc1)NC(C)C(O)c1ccc(O)cc1 (centres unmarked) [Isoxsuprine Hydrochloride]	78.3%	78.3%	reduced Aβ1-40				5.0%		8.07e-06 M	83.7%	83.7%						EC50 (molar) Aβ1-40 [1, 13]: no fit; MTT (% of ctl) [2, 14]: 99.8 % of ctl and 93.1 % of ctl; MTT (% of ctl) [2, 15]: 99.8 % of ctl and 93.1 % of ctl; LDH (% of ctl) [3, 14]: 106.2 % of ctl and 107.7 % of ctl; LDH (% of ctl) [3, 15]: 106.2 % of ctl and 107.7 % of ctl; reducing Aβ1-42 ([5]; primary screening): useful in reducing Aβ1-42
CC(CCc1ccccc1)NCC(O)c1ccc(O)c(C(N)=O)c1 (centres unmarked) [Labetalol Hydrochloride]	84.9%	84.9%	reduced Aβ1-40	93.0 % of ctl	93.0 % of ctl	164.0 % of ctl	−5.0%	164.0 % of ctl	7.19e-07 M	106%	106%	7.19e-07 M					EC50 [1, 8]: 4.06e-09 M
CO[C@H]1[C@H](O)[C@H](O[C@H]2CC[C@@]3(C)[C@H](CC[C@@H]4[C@@H]3CC[C@]3(C)[C@@H](C5=CC(=O)OC5)CC[C@]43O)C2)O[C@@H](C)[C@@H]1O [Neriifolin]			reduced Aβ1-40	101.2 % of ctl	101.2 % of ctl	110.8 % of ctl		110.8 % of ctl					79.7%	79.7 % of ctl	90.3%	90.3 % of ctl	
COC(=O)C1=C(C)NC(C)=C(C(=O)OC)C1c1ccccc1[N+](=O)[O-] [Nifedipine]	73.4%	73.4%		98.7 % of ctl	98.7 % of ctl	76.1 % of ctl	12.0%	76.1 % of ctl	7.36e-08 M	90.6%	90.6%	7.36e-08 M					
COCCOC(=O)C1=C(C)NC(C)=C(C(=O)OC(C)C)C1c1cccc([N+](=O)[O-])c1 (centres unmarked) [Nimodipine]	79.1%	79.1%		115.6 % of ctl	115.6 % of ctl	100.4 % of ctl	−4.0%	100.4 % of ctl	2.81e-05 M	90.9%	90.9%	2.81e-05 M					
CCOC(=O)C1=C(C)NC(C)=C(C(=O)OC)C1c1cccc([N+](=O)[O-])c1 (centres unmarked) [Nitrendipine]	33%	33%		100.8 % of ctl	100.8 % of ctl	94.3 % of ctl	5.0%	94.3 % of ctl	1.6e-06 M	64%	64%	1.6e-06 M					EC50 [1, 8]: 0.000822 M
NCCc1cc(O)c(O)cc1O [Oxidopamine Hydrochloride]			reduced Aβ1-40	121.5 % of ctl	121.5 % of ctl	103.6 % of ctl		103.6 % of ctl					43.8%	43.8 % of ctl	36.4%	36.4 % of ctl	reducing Aβ1-42 ([5]; primary screening): useful in reducing Aβ1-42
CCC[C@H](N[C@@H](C)C(=O)N1[C@H](C(=O)O)C[C@@H]2CCCC[C@@H]21)C(=O)OCC [Perindopril Erbumine]	83.8%	83.8%	reduced Aβ1-40	95.3 % of ctl	95.3 % of ctl	72.5 % of ctl	−5.6%	72.5 % of ctl	4.05e-09 M	88.8%	88.8%	4.5e-09 M					EC50 (molar) Aβ1-40 ([1]; conditioned medium of primary cortico-hippocampal neuron cultures from Tg2576 embryos, 24 hours after treatment, relative to vehicle (1% DMSO) control): no fit; EC50 (molar) Aβ1-40 [1, 13]: no fit
CO[C@H]1[C@H](O)[C@H](O[C@H]2CC[C@@]3(C=O)[C@H](CC[C@@H]4[C@@H]3CC[C@]3(C)[C@@H](C5=CC(=O)OC5)CC[C@]43O)C2)O[C@@H](C)[C@@H]1O [Peruvoside]				98.8 % of ctl	98.8 % of ctl	105.5 % of ctl		105.5 % of ctl					115%	115.3 % of ctl	90.9%	90.9 % of ctl	
CC(COc1ccccc1)N(CCCl)Cc1ccccc1 (centres unmarked) [Phenoxybenzamine Hydrochloride]				72.8 % of ctl	72.8 % of ctl	81.3 % of ctl		81.3 % of ctl					87.5%	87.5 % of ctl	90.7%	90.7 % of ctl	
